Experiments:
Assay in all cases: drug sensitivity score (DSS) (DSS (unitless, 0-50 scale)); higher = more sensitive (stronger viability inhibition); extreme values may be limits of the assay
Conditions in all cases: 72 h; culture: 2D
[1] = system: SK-MEL-28
Method in brief: (§1)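 Patient-derived melanoma cultures and melanoma cell lines were grown in 2D in 384-well plates with a 527-compound oncology library at five concentrations spanning a 10,000-fold range, with 1000–1500 cells per well for the cultures. CellTiter-Glo luminescence gave viability after 72 h at 37 °C. The drug sensitivity score is a modified area-under-curve measure derived from dose-response curves fitted in the in-house Breeze software.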

[2] = system: Bowes
Method in brief: as §1

[3] = system: SK-MEL-2
Method in brief: as §1

[4] = system: WM165
Method in brief: as §1

[5] = system: WM852
Method in brief: as §1

[6] = system: FM-MEL-6
Method in brief: as §1

[7] = system: FM-MEL-3
Method in brief: as §1

[8] = system: FM-MEL-2
Method in brief: as §1

SMILES	drug sensitivity score [1]	drug sensitivity score [2]	drug sensitivity score [3]	drug sensitivity score [4]	drug sensitivity score [5]	drug sensitivity score [6]	drug sensitivity score [7]	drug sensitivity score [8]
CC(C)Oc1ccc(C(=O)N[C@H](CNC(=O)CN(C)C)Cc2ccc(-c3cn4cccc([C@H](C)O)c4n3)cc2)cc1Cl	5.3	19.2	13.5	13.7	9.5	4.7	6.3	7.3
C[C@@]1(C(=O)Nc2ccc(F)nc2)CCCN1c1nc(Nc2cc(C3CC3)n[nH]2)c2cccn2n1	2	11.7	2.9	13.4	6.9	6.1	17.9	5
Cc1ncc(Cl)cc1NCc1ccc(C(=O)N[C@@H](CC2CCCC2)C(=O)NC2CC2)s1	0	0	0	0	0	0	4.6	0
Cn1cc(C2=Nc3cc(NC(=O)C(N)C4CCCCC4)cc4c3C2=CNNC4=O)cn1 (centres undefined)	2.3	15.5	11	13.5	12.5	11.1	9.7	3.1
N#Cc1ccc(COC[C@H]2O[C@@H](n3c(NCc4ccc(Cl)c(Cl)c4)nc4c(N)ncnc43)[C@H](O)[C@@H]2O)cc1	5.5	2.7	0	5.1	0	1	6.8	4.2
COc1ccc(C[C@H](NC(=O)[C@H](C)NC(=O)CN2CCOCC2)C(=O)N[C@@H](Cc2ccccc2)C(=O)C2(C)CO2)cc1 (stereo in doubt) [ONX-0914]	19.4	21.2	15.6	18.8	16.6	18.7	19.2	13.5
Cn1cc(C[C@@H](N)C(=O)O)c2ccccc21 [1-methyl-D-tryptophan]	0	0	0	0	0	0.6	0	0
CC/C(=C(\c1ccc(O)cc1)c1ccc(OCCN(C)C)cc1)c1ccccc1 [4-hydroxytamoxifen]	4.5	0	2.8	3.9	7.9	7.8	7.4	6.6
Nc1ncnc2c1nc(N)n2[C@@H]1O[C@H](CO)[C@@H](O)[C@H]1O [8-amino-adenosine]	22.6	16.3	20.9	23.2	18.1	20.5	18.5	19.4
Nc1ncnc2c1nc(Cl)n2[C@@H]1O[C@H](CO)[C@@H](O)[C@H]1O [8-chloro-adenosine]	5.1	5.2	7.7	14.8	4.6	7.5	3.3	0.9
COc1cc2c(cc1OCCCN1CCCC1)N=C(N)C21CCC1 [A-366]	0.6	3.8	0	2.3	2.7	0.5	0.4	0
COc1ccc(S(=O)(=O)Nc2cccnc2Nc2ccc(O)cc2)cc1 [ABT-751]	5.7	11	9	10.3	8.9	9.2	5.7	4
C[C@H](Nc1ncnc2[nH]cnc12)c1cc2ccc(F)cc2nc1-c1ccccn1 [AMG319]	0	0	0	0	0	0.6	0	1.7
CC(C)[C@@H](CS(=O)(=O)C(C)C)N1C(=O)[C@@](C)(CC(=O)O)C[C@H](c2cccc(Cl)c2)[C@H]1c1ccc(Cl)cc1 [AMG-232]	0	0	0	19	0	0	10.5	1.8
COCCOc1cnc2ccn([C@H](C)c3nnc4c(F)cc(-c5cnn(C)c5)cn34)c(=O)c2c1 [AMG-337]	0	0	0	0	0	0	0	0
CC1CCC(n2c3cnccc3c3cnc(Nc4ccc5c(n4)CCN(C(=O)CO)C5)nc32)CC1 (centres undefined) [AMG-925]	0	0	0	0	1.8	0.7	0	0.7
COCC1(CO)C(=O)C2CCN1CC2 (centres undefined) [APR-246]	0	0	0	0	0	0	0	0
CC(C)[C@H](C(=O)Nc1ccc(C(=O)NO)cc1)c1ccccc1 [AR-42]	10.3	6	12.7	14	3.9	11.6	11.8	9.8
Cc1sc2c(c1C)C(c1ccc(Cl)cc1)=N[C@@H](CC(=O)Nc1ccc(OCCOCCOCCOCCNc3cccc4c3C(=O)N(C3CCC(=O)NC3=O)C4=O)cc1)c1nnc(C)n1-2 (some centres undefined) [ARV-825]	3.4	14.2	2.9	8.3	0	6.1	4.8	4.7
COc1cc(N2CCC(N3CCN(C)CC3)CC2)ccc1Nc1ncnc(Nc2ccccc2S(=O)(=O)C(C)C)n1 [ASP3026]	2	4.8	2.7	5.5	5.2	4.4	2.6	2.4
O=C(NC1CCNCC1)c1n[nH]cc1NC(=O)c1c(Cl)cccc1Cl [AT7519]	10.5	21.4	15.1	20	15.3	19.3	12.8	7.7
O=C(Nc1c[nH]nc1-c1nc2ccc(CN3CCOCC3)cc2[nH]1)NC1CC1 [AT9283]	2.9	8	2.3	8	2.9	0	0	0

SMILES	drug sensitivity score [1]	drug sensitivity score [2]	drug sensitivity score [3]	drug sensitivity score [4]	drug sensitivity score [5]	drug sensitivity score [6]	drug sensitivity score [7]	drug sensitivity score [8]
CN[C@@H](C)C(=O)N[C@H]1CN(C(=O)CC(C)C)CC[C@H]2CC[C@@H](C(=O)NC(c3ccccc3)c3ccccc3)N2C1=O [AT-406]	0	1.9	0.1	0	0	2.2	0	9.7
CC[C@H](CC#N)OC(=O)N[C@@H](C)c1cccc(NC(=O)Nc2ccc(-c3cnco3)c(OC)c2)c1 [AVN944]	13.3	10.4	4.8	18.9	8.4	12.8	10.5	8.1
COc1cc(N2CCN(C)CC2)ccc1Nc1nccc(-c2cn(C)c3cnccc23)n1 [AZ191]	0	3.4	0	2.7	1.9	0	0.6	2.4
COc1cc(OC2CCN(C)CC2)ccc1Nc1ncc2c(n1)n(C1CCCC1)c(=O)n2C [AZ 3146]	1.7	3.3	1.3	5.5	3.2	3	2.2	3.3
CN(C)CCCOc1ccc(-c2ccc3ncc4c(c3c2)n(C2CCOCC2)c(=O)n4C)cn1 [AZD0156]	0	0	0	0.3	0	0	0	0.4
N[C@@H]1CCCN(c2c(/C=C3\SC(=O)NC3=O)cccc2-c2ccccc2)C1 [AZD1208]	0.4	0	0	0	0	0.8	2	2.8
Cc1cc(Nc2nc(N[C@@H](C)c3ncc(F)cn3)ncc2Cl)[nH]n1 [AZD1480]	0	0	0	0	0	0	0	0
COc1cc2ncnc(Nc3cccc(Cl)c3F)c2cc1OC(=O)N1CCN(C)C[C@H]1C [AZD3759]	0	0	0	0	0	0	0	0
Cc1[nH]nc(C(F)(F)F)c1Cc1sc2c(c1C(=O)N1C[C@](C)(O)CO1)c(=O)n(C)c(=O)n2C(C)C [AZD3965]	0	8	0	0	0	0.3	0	0
COc1cc(CCc2cc(NC(=O)c3ccc(N4CC(C)NC(C)C4)cc3)n[nH]2)cc(OC)c1 (centres undefined) [AZD4547]	0	0	0	0	0	0	0	0
C[C@@H]1COCCN1c1cc(C2([S@](C)(=N)=O)CC2)nc(-c2cc[nH]c3nccc2-3)n1 [AZD6738]	2.7	19.3	10.8	10.2	14.8	7	9.7	3.4
CN(C)C(=O)c1ccc(S(=O)(=O)c2ccc(NC(=O)[C@@](C)(O)C(F)(F)F)c(Cl)c2)cc1 [AZD7545]	0	2.2	0	0	1.1	0	0	0
NC(=O)Nc1cc(-c2cccc(F)c2)sc1C(=O)N[C@H]1CCCNC1 [AZD7762]	2.2	7.7	4.2	4.7	8.4	6.5	6.1	0.2
N#Cc1ccc2[nH]c(O)c(-c3ccc(CN4CCOCC4)cn3)c2c1 [AZD-1080]	0	0	0	2.2	0.6	0	0	0
Cc1ncc(-c2ccnc(Nc3ccc(S(C)(=O)=O)cc3)n2)n1C(C)C [AZD-5438]	9.9	10.7	4.2	10.6	6.2	7	4.7	2.2
Cc1cc([C@@H](C)Nc2ccccc2C(=O)O)c2nc(N3CCOCC3)cc(=O)n2c1 [AZD-6482]	3.3	1.2	0	0.5	0.4	1.4	1.7	1.9
C[C@@H](Nc1cc(F)cc(F)c1)c1cc(C(=O)N(C)C)cc2c(=O)cc(N3CCOCC3)oc12 [AZD-8186]	3.7	2.6	0	0.4	0.8	2.2	0	2.4
CCN1CCN(Cc2ccc(Nc3ncc(F)c(-c4cc(F)c5nc(C)n(C(C)C)c5c4)n3)nc2)CC1 [Abemaciclib]	8.7	9.6	0	6.6	5.3	0	7.2	4
CN(C)Cc1c(C(=O)NCCOc2ccc(C(=O)NO)cc2)oc2ccccc12 [Abexinostat]	13	10	15.9	17	9.1	14.7	14.6	15.9
C[C@]12CC[C@H](O)CC1=CC[C@@H]1[C@@H]2CC[C@]2(C)C(c3cccnc3)=CC[C@@H]12 [Abiraterone]	0	0	0	0	0	0	0	0
CC#CC(=O)N1CCC[C@H]1c1nc(-c2ccc(C(=O)Nc3ccccn3)cc2)c2c(N)nccn12 [Acalabrutinib]	0	0	0	0	0	3.4	2.2	1

From the supplement of paper PMC8633005
